Assay [1] deals with Streptococcus mutans. Description: Antibacterial activity against Streptococcus mutans UA159 MTCC 497 at 30 ug/mL after 24 hrs by disk diffusion method. It is filed as functional. The following applies: UA159 MTCC 497, 24 h, read-out: DIZ. In general terms: Agar diffusion results depend on both activity and mobility in agar.
The subject of assay [2] is Streptococcus pyogenes. Description: Antibacterial activity against recultured Streptococcus pyogenes at 30 ug/mL after 24 hrs by disk diffusion method. It is filed as functional. The following applies: read-out: DIZ.
In assay [3] the test system is Staphylococcus aureus. The assay is described as follows: Antibacterial activity against Staphylococcus aureus ATCC 25923 at 30 ug/mL after 24 hrs by disk diffusion method. It is filed as functional. As to conditions: ATCC 25923, 24 h, read-out: DIZ.
The test system of assay [4] is Pseudomonas aeruginosa. Description: Antibacterial activity against Pseudomonas aeruginosa ATCC 27853 at 30 ug/mL after 24 hrs by disk diffusion method. It is filed as functional. As to conditions: ATCC 27853, 24 h, read-out: DIZ.
In assay [5] the test system is Salmonella enterica. The assay is described as follows: Antibacterial activity against recultured Salmonella Typhimurium at 30 ug/mL after 24 hrs by disk diffusion method. It is filed as functional, Salmonella enterica subsp. enterica serovar Typhimurium. As to conditions: read-out: DIZ.
Assay [6] concerns Escherichia coli. Description: Antibacterial activity against Escherichia coli ATCC 25922 at 30 ug/mL after 24 hrs by disk diffusion method. As to conditions: ATCC 25922, 24 h, read-out: DIZ. It is filed as functional.
In assay [7] the test system is Streptococcus mutans. The assay is described as follows: Antibacterial activity against Streptococcus mutans UA159 MTCC 497 after 24 hrs by microdilution method. In kind it is functional. As to conditions: UA159 MTCC 497, 24 h.
For assay [8], the system named is Streptococcus pyogenes. Description: Antibacterial activity against recultured Streptococcus pyogenes after 24 hrs by microdilution method. In kind it is functional. For orientation: Broth dilution looks for growth in wells or tubes with falling amounts of substance.
The subject of assay [9] is Staphylococcus aureus. Description: Antibacterial activity against Staphylococcus aureus ATCC 25923 after 24 hrs by microdilution method. It is filed as functional. The following applies: ATCC 25923, 24 h.
For assay [10], the system named is Pseudomonas aeruginosa. Description: Antibacterial activity against Pseudomonas aeruginosa ATCC 27853 after 24 hrs by microdilution method. It is filed as functional. The following applies: ATCC 27853, 24 h.
Assay [11] has as its system Salmonella enterica. Description: Antibacterial activity against recultured Salmonella Typhimurium after 24 hrs by microdilution method. In kind it is functional, Salmonella enterica subsp. enterica serovar Typhimurium.
Assay [12] relates to Escherichia coli. The assay is described as follows: Antibacterial activity against Escherichia coli ATCC 25922 after 24 hrs by microdilution method. In kind it is functional. The following applies: ATCC 25922, 24 h.
Assay [13] deals with Streptococcus mutans. The assay is described as follows: Antibacterial activity against Streptococcus mutans UA159 MTCC 497 after 24 hrs by disk diffusion method. In kind it is functional.
Assay [14] has as its system Streptococcus pyogenes. The assay is described as follows: Antibacterial activity against recultured Streptococcus pyogenes after 24 hrs by disk diffusion method. It is filed as functional.
Assay [15] relates to Staphylococcus aureus. The assay is described as follows: Antibacterial activity against Staphylococcus aureus ATCC 25923 after 24 hrs by disk diffusion method. In kind it is functional.
Assay [16] relates to Pseudomonas aeruginosa. The assay is described as follows: Antibacterial activity against Pseudomonas aeruginosa ATCC 27853 after 24 hrs by disk diffusion method. It is filed as functional.
The test system of assay [17] is Salmonella enterica. Description: Antibacterial activity against recultured Salmonella Typhimurium after 24 hrs by disk diffusion method. In kind it is functional, Salmonella enterica subsp. enterica serovar Typhimurium.
In assay [18] the test system is Escherichia coli. Description: Antibacterial activity against Escherichia coli ATCC 25922 after 24 hrs by disk diffusion method. It is filed as functional.
Assay [19] concerns Candida albicans. Description: Antifungal activity against Candida albicans ATCC 24433 after 48 to 72 hrs by disk diffusion method. In kind it is functional.
In assay [20] the test system is Pichia kudriavzevii. The assay is described as follows: Antifungal activity against Candida krusei ATCC 6528 after 48 to 72 hrs by disk diffusion method. In kind it is functional.
Assay [21] concerns Candida parapsilosis. The assay is described as follows: Antifungal activity against Candida parapsilosis ATCC 22019 after 48 to 72 hrs by disk diffusion method. In kind it is functional.
The test system of assay [22] is Cryptococcus neoformans. The assay is described as follows: Antifungal activity Cryptococcus neoformans after 48 to 72 hrs by disk diffusion method. In kind it is functional.
The test system of assay [23] is Candida albicans. The assay is described as follows: Antifungal activity against Candida albicans ATCC 24433 after 48 to 72 hrs by microdilution method. In kind it is functional.
For assay [24], the system named is Pichia kudriavzevii. Description: Antifungal activity against Candida krusei ATCC 6528 after 48 to 72 hrs by microdilution method. It is filed as functional.
Assay [25] has as its system Candida parapsilosis. Description: Antifungal activity against Candida parapsilosis ATCC 22019 after 48 to 72 hrs by microdilution method. In kind it is functional. The following applies: Lodderomyces parapsilosis.
Assay [26] has as its system Cryptococcus neoformans. Description: Antifungal activity Cryptococcus neoformans after 48 to 72 hrs by microdilution method. It is filed as functional.
The test system of assay [27] is Candida albicans. Description: Antifungal activity against Candida albicans ATCC 24433 at 30 ug/mL after 48 to 72 hrs by disk diffusion method. As to conditions: read-out: DIZ. In kind it is functional.
Assay [28] has as its system Pichia kudriavzevii. Description: Antifungal activity against Candida krusei ATCC 6528 at 30 ug/mL after 48 to 72 hrs by disk diffusion method. In kind it is functional. As to conditions: read-out: DIZ.
The test system of assay [29] is Candida parapsilosis. Description: Antifungal activity against Candida parapsilosis ATCC 22019 at 30 ug/mL after 48 to 72 hrs by disk diffusion method. In kind it is functional. The following applies: Lodderomyces parapsilosis, read-out: DIZ.
The test system of assay [30] is Cryptococcus neoformans. Description: Antifungal activity Cryptococcus neoformans at 30 ug/mL after 48 to 72 hrs by disk diffusion method. The following applies: read-out: DIZ. It is filed as functional.

Experimental findings from ChEMBL document CHEMBL1157039, “Synthesis and characterization of novel fatty acid analogs of cholesterol: in vitro antimicrobial activity” (2010) are described below.

In brackets after ≈: the same amount, converted by molar mass.

What is called MIC is the lowest concentration found to suppress growth. Low readings indicate a more susceptible organism, high ones a less susceptible organism.

Turning to `O=C(N[C@H](CO)[C@H](O)c1ccc([N+](=O)[O-])cc1)C(Cl)Cl` [CHLORAMPHENICOL], the zone of inhibition at 30 µg/mL was determined as 26.8 mm in the assay with Streptococcus mutans [1]; 22.4 mm in the assay with Streptococcus pyogenes [2]; 21 mm in the assay with Staphylococcus aureus [3]; 17.1 mm with Pseudomonas aeruginosa [4]; 25.2 mm with Salmonella enterica [5]; 20 mm in the assay on Escherichia coli [6]. Besides, the MIC in the assay with Streptococcus mutans [7], against Streptococcus pyogenes [8], against Staphylococcus aureus [9], in the assay on Pseudomonas aeruginosa [10], with Salmonella enterica [11] and in the assay with Escherichia coli [12] was 32 µg/mL (≈ 99 µM) in each case.

For `CCCCCCCC/C=C\CCCCCCCC(=O)O[C@H]1CC[C@@]2(C)C(=CC[C@H]3[C@@H]4CC[C@H]([C@H](C)CCCC(C)C)[C@@]4(C)CC[C@@H]32)C1` [CHOLESTERYL OLEATE], the “diameter of the inhibition zone (DIZ)” value came out at 18.9 mm in the assay on Streptococcus mutans [13]; 17.2 mm with Streptococcus pyogenes [14]; 17.8 mm with Staphylococcus aureus [15]; 14.3 mm in the assay with Pseudomonas aeruginosa [16]; 15.1 mm with Salmonella enterica [17]; 16.1 mm in the assay on Escherichia coli [18]. Also, the “diameter of the inhibition zone (DIZ)” value was 18.7 mm in the assay on Candida albicans [19], 16.8 mm with Pichia kudriavzevii [20], 15.7 mm in the assay with Candida parapsilosis [21] and 15.1 mm with Cryptococcus neoformans [22]. Also, the minimum inhibitory concentration (MIC) with Streptococcus mutans [7] was 64 µg/mL (≈ 98.3 µM); in the assay on Streptococcus pyogenes [8] it was 64 µg/mL (≈ 98.3 µM); in the assay on Staphylococcus aureus [9] it was 64 µg/mL (≈ 98.3 µM); in the assay with Pseudomonas aeruginosa [10] it was 128 µg/mL (≈ 197 µM); in the assay on Salmonella enterica [11], 128 µg/mL (≈ 197 µM); in the assay with Escherichia coli [12] it was 128 µg/mL (≈ 197 µM). For the same molecule, the minimal inhibitory concentration (MIC) was 2 µg/mL (≈ 3.07 µM) in the assay on Candida albicans [23], 256 µg/mL (≈ 393 µM) with Pichia kudriavzevii [24], 16 µg/mL (≈ 24.6 µM) in the assay with Candida parapsilosis [25] and 32 µg/mL (≈ 49.1 µM) with Cryptococcus neoformans [26].

For the molecule `OC(Cn1cncn1)(Cn1cncn1)c1ccc(F)cc1F` [FLUCONAZOLE], the zone of inhibition at 30 µg/mL in the assay with Candida albicans [27] is 20 mm; in the assay with Pichia kudriavzevii [28], 20 mm; in the assay on Candida parapsilosis [29], 18 mm; with Cryptococcus neoformans [30], 19 mm. In addition, the MIC worked out at 1 µg/mL (≈ 3.27 µM) against Candida albicans [23], 64 µg/mL (≈ 209 µM) against Pichia kudriavzevii [24], 8 µg/mL (≈ 26.1 µM) against Candida parapsilosis [25] and 8 µg/mL (≈ 26.1 µM) in the assay with Cryptococcus neoformans [26].
